Laboratory results: patent US5525599A, “7-substituted-amino-3-substituted-3-cephem-4-carboxylic acids” (Eli Lilly and Company, priority 1993, dated 1996)
Values after ≈ are worked out from the molar mass of the structure shown. Read-outs that look alike come from different tables or passages of the source. Each block holds one compound with its values, some of them ahead of it.

What was measured:
other Gram(-) bacteria = assay: In vitro activity (MIC), agar dilution method; type: cell-based
K. pneumonia (X26) = assay: In vitro activity (MIC), agar dilution method; type: cell-based; details: Klebsiella pneumoniae; K. pneumonia (X26), agar dilution; read-out: MIC
Procedure: (§1) Cephalosporins 9a-o were assayed against a broad array of Gram-positive and Gram-negative bacteria in Mueller-Hinton agar by the 2-fold serial dilution method, (Kirst, H. A.; J. Antibiot. 1982, 35, 1675).
(§2) Test compounds were diluted to an appropriate range of concentrations in 0.1M phosphate buffer (pH 7), incorporated into Mueller-Hinton agar (difco) supplemented with 1% Bacto-Supplement C (Difco) at 50° C. and allowed to solidify in petri dishes. Fresh overnight cultures of test bacteria were diluted to approximately 1×10^4 cells/mL aand applied in […] to the surface of the agar plates. The inoculated plates were incubated overnight at 35° C. in ambient air. MIC endpoints were recorded as the lowest antibiotic concentrations that inhibited the development of visible bacterial growth on the plates.

Enter. faecalis (2041) = assay: In vitro activity (MIC), agar dilution method; type: cell-based; details: Enterococcus faecalis; Enter. faecalis (2041), agar dilution; read-out: MIC
Procedure: as §1, §2

Staph. epiderm. (222) = assay: In vitro activity (MIC), agar dilution method; type: cell-based; details: Staphylococcus epidermidis; Staph. epiderm. (222), methicillin-resistant strain, agar dilution; read-out: MIC
Procedure: as §1, §2

K. pneumonia (KAE) = assay: In vitro activity (MIC), agar dilution method; type: cell-based; details: Klebsiella pneumoniae
Procedure: as §1, §2

Enter. faecium (X66) = assay: In vitro activity (MIC), agar dilution method; type: cell-based; details: Enterococcus faecium; Enter. faecium (X66), agar dilution; read-out: MIC
Procedure: as §1, §2

K. pneumonia (X68) = assay: In vitro activity (MIC), agar dilution method; type: cell-based; details: Klebsiella pneumoniae
Procedure: as §1, §2

Staph. epiderm. (270) = assay: In vitro activity (MIC), agar dilution method; type: cell-based; details: Staphylococcus epidermidis, methicillin-resistant strain
Procedure: as §1, §2

Staph. aureus (X1.1) = assay: In vitro activity (MIC), agar dilution method; type: cell-based; details: Staphylococcus aureus; Staph. aureus (X1.1), agar dilution; read-out: MIC
Procedure: as §1, §2

E. coli (N10) = assay: In vitro activity (MIC), agar dilution method; type: cell-based; details: Escherichia coli
Procedure: as §1, §2

Staph. aureus (X400) = assay: In vitro activity (MIC), agar dilution method; type: cell-based; details: Staphylococcus aureus; Staph. aureus (X400), methicillin-resistant strain, agar dilution; read-out: MIC
Procedure: as §1, §2

Staph. aureus (S13E) = assay: In vitro activity (MIC), agar dilution method; type: cell-based; details: Staphylococcus aureus
Procedure: as §1, §2

E. coli (TEM) = assay: In vitro activity (MIC), agar dilution method; type: cell-based; details: Escherichia coli
Procedure: as §1, §2

E. coli (EC14) = assay: In vitro activity (MIC), agar dilution method; type: cell-based; details: Escherichia coli
Procedure: as §1, §2

Staph. aureus (V41) = assay: In vitro activity (MIC), agar dilution method; type: cell-based; details: Staphylococcus aureus; Staph. aureus (V41), agar dilution; read-out: MIC
Procedure: as §1, §2

[1] = MICs against 4 strains of methicillin-resistant staphylococci; type: cell-based, Staphylococcus aureus and Staphylococcus epidermidis; details: Staphylococcus aureus, read-out: minimal inhibitory concentrations (MICs)
Procedure: as §1, §2

H. influenzae (C.L.) = assay: In vitro activity (MIC), agar dilution method; type: cell-based; details: Haemophilus influenzae; H. influenzae (C.L.), agar dilution; read-out: MIC
Procedure: as §1, §2

H. influenzae (76) = assay: In vitro activity (MIC), agar dilution method; type: cell-based; details: Haemophilus influenzae; H. influenzae (76), agar dilution; read-out: MIC
Procedure: as §1, §2

Strept. pyogenes (C203) = assay: In vitro activity (MIC), agar dilution method; type: cell-based; details: Streptococcus pyogenes; Strept. pyogenes (C203), agar dilution; read-out: MIC
Procedure: as §1, §2

[2] = tested on: methicillin-resistant staphylococci; details: in words; Frongillo 1986; cited from earlier work
[3] = tested on: methicillin-resistant staphylococci; details: in words; Chambers 1984; cited from earlier work
[4] = tested on: 33 strains of methicillin-resistant staphylococci; assay: Geometric mean MICs against 33 strains of methicillin-resistant staphylococci; type: cell-based
Procedure: as §2
It is known that resistance to methicillin in staphylococci is often of the heterogeneous type and therefore not easily detected. […] (Goldstein, F. W.; Acar, J. J. Antimicrob. Chemother. […], 27, 549). […] J.; Drake T. A.; Rusnak, M. G.; Sande, M. A. J. Infect. Dis. 1984, 149, 894).

[5] = tested on: methicillin-resistant staphylococci; details: in words; Frongillo 1984; cited from earlier work

Compound: CC(=O)OCC1=C(C(=O)O)N2C(=O)[C@@H](NC(=O)Cc3csc(-c4cccc(O)c4)n3)[C@H]2SC1 [9m, [6R-[6A,7B(R*)]]-3-[(Acetyloxy)methyl]-7-[[[2-(3-hydroxyphenyl)-4-thiazolyl]acetyl]amino]-8-oxo-5-thia-1-azabicyclo[4.2.0]oct-2-ene-2-carboxylic Acid]
MIC (other Gram(-) bacteria): > 64 µg/mL
MIC (K. pneumonia (X26)): 4 µg/mL (≈ 8.17 µM)
MIC (Enter. faecalis (2041)): 16 µg/mL (≈ 32.7 µM)
MIC (Staph. epiderm. (222)): 0.25 µg/mL (≈ 0.511 µM)
MIC (K. pneumonia (KAE)): 128 µg/mL (≈ 261 µM)
MIC (Enter. faecium (X66)): 32 µg/mL (≈ 65.4 µM)
MIC (K. pneumonia (X68)): 128 µg/mL (≈ 261 µM)
MIC (Staph. epiderm. (270)): 1 µg/mL (≈ 2.04 µM)
MIC (Staph. aureus (X1.1)): 0.25 µg/mL (≈ 0.511 µM)
MIC (E. coli (N10)): 128 µg/mL (≈ 261 µM)
MIC (Staph. aureus (X400)): 16 µg/mL (≈ 32.7 µM)
MIC (Staph. aureus (S13E)): 8 µg/mL (≈ 16.3 µM)
MIC (E. coli (TEM)): 128 µg/mL (≈ 261 µM)
MIC (E. coli (EC14)): 128 µg/mL (≈ 261 µM)
MIC (Staph. aureus (V41)): 1 µg/mL (≈ 2.04 µM)
MIC [1]: ≤ 16 µg/mL

Compound: COc1ccccc1-c1nc(CC(=O)N[C@@H]2C(=O)N3C(C(=O)O)=C(COC(C)=O)CS[C@H]23)cs1 [9o, [6R-[6A,7B(R*)]]-3-[(Acetyloxy)methyl]-7-[[[2-(2-methoxyphenyl)-4-thiazolyl]acetyl]amino]-8-oxo-5-thia-1-azabicyclo[4.2.0]oct-2-ene-2-carboxylic Acid]
MIC (other Gram(-) bacteria): > 64 µg/mL
MIC (K. pneumonia (X26)): 2 µg/mL (≈ 3.97 µM)
MIC (Enter. faecalis (2041)): 8 µg/mL (≈ 15.9 µM)
MIC (Staph. epiderm. (222)): 0.125 µg/mL (≈ 0.248 µM)
MIC (K. pneumonia (KAE)): 128 µg/mL (≈ 254 µM)
MIC (Enter. faecium (X66)): 16 µg/mL (≈ 31.8 µM)
MIC (H. influenzae (C.L.)): 64 µg/mL (≈ 127 µM)
MIC (H. influenzae (76)): 4 µg/mL (≈ 7.94 µM)
MIC (K. pneumonia (X68)): 128 µg/mL (≈ 254 µM)
MIC (Staph. epiderm. (270)): 0.5 µg/mL (≈ 0.993 µM)
MIC (Staph. aureus (X1.1)): 0.06 µg/mL (≈ 0.119 µM)
MIC (E. coli (N10)): 128 µg/mL (≈ 254 µM)
MIC (Staph. aureus (X400)): 16 µg/mL (≈ 31.8 µM)
MIC (Staph. aureus (S13E)): 8 µg/mL (≈ 15.9 µM)
MIC (E. coli (TEM)): 128 µg/mL (≈ 254 µM)
MIC (E. coli (EC14)): 128 µg/mL (≈ 254 µM)
MIC (Staph. aureus (V41)): 0.5 µg/mL (≈ 0.993 µM)
MIC (Strept. pyogenes (C203)): 0.015 µg/mL (≈ 0.0298 µM)
MIC [1]: ≤ 16 µg/mL

MIC ([4]; MHA + 4% NaCl, 33 strains, 35° C., read-out: Geometric mean MIC): 13 µg/mL
MIC ([4]; MHA, 33 strains, read-out: Geometric mean MIC): 6.8 µg/mL (≈ 14.7 µM)
Compound: Cn1nnnc1SCC1=C(C(=O)O)N2C(=O)[C@@H](NC(=O)[C@H](O)c3ccccc3)[C@H]2SC1 [Cefamandole]
clinical use for treatment of infections caused by methicillin-resistant staphylococci [2]: successfully used clinically for the treatment of infections caused by methicillin-resistant staphylococci
efficacy in animal models versus vancomycin [3]: poorer efficacy than vancomycin in animal models
activity against methicillin-resistant staphylococci [5]: among the most active β-lactam antibiotics against methicillin-resistant staphylococci

Compound: CO/N=C(\C(=O)N[C@@H]1C(=O)N2C(C(=O)O)=C(COC(C)=O)CS[C@H]12)c1csc(N)n1 [Cefot, Cefotaxime, reference compound]
MIC (K. pneumonia (X26)): 0.008 µg/mL (≈ 0.0176 µM)
MIC (Enter. faecalis (2041)): 1 µg/mL (≈ 2.2 µM)
MIC (Staph. epiderm. (222)): 2 µg/mL (≈ 4.39 µM)
MIC (K. pneumonia (KAE); K. pneumonia (KAE), agar dilution, read-out: MIC): 1 µg/mL (≈ 2.2 µM)
MIC (Enter. faecium (X66)): 128 µg/mL (≈ 281 µM)
MIC (H. influenzae (C.L.)): 0.008 µg/mL (≈ 0.0176 µM)
MIC (H. influenzae (76)): 0.008 µg/mL (≈ 0.0176 µM)
MIC (K. pneumonia (X68); K. pneumonia (X68), agar dilution, read-out: MIC): 0.015 µg/mL (≈ 0.0329 µM)
MIC (Staph. epiderm. (270)): 8 µg/mL (≈ 17.6 µM)
MIC (Staph. aureus (X1.1)): 1 µg/mL (≈ 2.2 µM)
MIC (E. coli (N10); E. coli (N10), agar dilution, read-out: MIC): 0.06 µg/mL (≈ 0.132 µM)
MIC (Staph. aureus (X400)): 128 µg/mL (≈ 281 µM)
MIC (Staph. aureus (S13E)): 64 µg/mL (≈ 141 µM)
MIC (E. coli (TEM)): 0.008 µg/mL (≈ 0.0176 µM)
MIC (E. coli (EC14); E. coli (EC14), agar dilution, read-out: MIC): 0.015 µg/mL (≈ 0.0329 µM)
MIC (Staph. aureus (V41)): 2 µg/mL (≈ 4.39 µM)
MIC (Strept. pyogenes (C203)): 0.008 µg/mL (≈ 0.0176 µM)

Compound: Cc1onc(-c2ccccc2)c1C(=O)N[C@@H]1C(=O)N2[C@@H]1SC(C)(C)[C@@H]2C(=O)O [Oxacillin, reference compound]
MIC ([4]; read-out: Geometric mean MIC, MHA + 4% NaCl, 33 strains, 35° C.): 97 µg/mL
MIC ([4]; read-out: Geometric mean MIC, MHA, 33 strains): 49 µg/mL (≈ 122 µM)
